Measured values as given in patent US20250367189A1, “2-BROMO-LYSERGIC ACID DI[…] SUBSTANCE ABUSE” (Ceruvia Lifesciences LLC, priority 2020, published 2025).

Experiments:
male fosTRAP2×Ai14 mice = assay: Two-bottle choice (water vs 20% ethanol) drinking after ethanol exposure; assay type: in vivo; conditions: for ethanol preference, within-group mean difference week 1 vs. week 3: follow-up week 1 (after dose 1) vs week 3 (after dose 2); for ethanol consumption, mean difference Saline vs. treatment: planned contrast across 4 follow-up weeks, LSD 50 ug/kg or BOL-148 3.0 mg/kg intraperitoneal; for effect of treatment on alcohol preference (summary) / additive effect of a second dose on alcohol preference: summary in words; for additive effect of a second dose on alcohol preference: two doses, weeks 1 and 3
From the text: Twenty-five adult (12-30-week old), male fosTRAP2×Ai14 mice were bred in-house. Generation of the fosTRAP2 and FosTRAP lines were previously described (Guenthner, et al.). fosTRAP2 mice were crossed with Ai14 mice to obtain the mice used in this study. Mice were single-housed on a reverse light-dark cycle and given unlimited access to standard mouse chow and water. Animals were given a week to habituate to single housing, after which they were given free access to 2 bottles containing water and 20% ethanol for 24-hour periods beginning at the start of their dark cycle, 5 days per week (Monday-Friday) for 4 weeks (ethanol exposure). Amount of water and ethanol consumed (by volume and weight) were measured for each mouse across the final 5 days of the ethanol exposure period, and ethanol preference was counterbalanced across treatment group by the mean ethanol preference by weight (corrected for body weight) during this period.
Following 4 weeks of ethanol exposure, animals were administered one of 3 treatments via a single intraperitoneal injection 10 minutes prior to onset of the dark cycle/day one in a five-day cycle of alcohol exposure: saline, LSD 50 ug/kg, or BOL-148 3.0 mg/kg. Following administration of treatment, animals were placed back into their home cages with free access to standard mouse chow and water. After 10 minutes, 12 animals from each treatment group were given free access to 2 bottles containing water and 20% ethanol for 24 hours daily for 4 weeks (alcohol preference). Amount of water and ethanol consumed (by volume and weight) were measured daily at the end of the light cycle. Positions of bottles containing water and 20% ethanol were alternated daily to prevent the formation of place preference. An additional 2-4 animals per treatment group were given free access to standard mouse chow and water, and ambulatory activity as well as head-twitching behavior (thought to correspond with hallucinogenicity of substances in mice), was measured for 35 minutes following treatment.
For all hypotheses, data were analyzed using Mixed Models for Repeated Measures (MMRM), including fixed effects of Treatment (Saline, BOL, LSD), Week (1-4), Day (1-5), and two- and three-way interactions between Treatment and Day/Week. Repeated Effects were represented as a nested within-subjects variable (days within weeks). Data were analyzed separately for each of 3 dependent variables: ethanol consumption (mg and ml consumed), ethanol preference (ethanol consumption/total fluid consumption), and total fluid consumption (mg and ml consumed). For hypothesis 1a, a priori between-group comparisons are performed to contrast ethanol consumption, ethanol preference, and total fluid consumption between the vehicle- and LSD-treated groups. For hypothesis 1b, a priori between-group comparisons are performed to contrast ethanol consumption, ethanol preference, and total fluid consumption between the LSD-treated group at follow-up weeks 1 versus 3. For hypothesis 2a, a priori between-group comparisons are performed to contrast ethanol consumption, ethanol preference, and total fluid consumption between the vehicle- and BOL-148-treated groups. For hypothesis 2b, a priori between-group comparisons are performed to contrast ethanol consumption, ethanol preference, and total fluid consumption between the LSD- and BOL-148-treated groups. For each hypothesis, with 3 groups of 5-10 animals (total n=25) and 20 days of repeated measurements (autocorrelation=0.5), there is power of 0.8 to detect moderately-sized effects of approximately d=0.3 at alpha=0.05.

5HT2A receptors = 5HT2A receptors (Homo sapiens, UniProt P28223); conditions: cited from earlier work
5HT2A receptors, sequence (P28223 whole entry): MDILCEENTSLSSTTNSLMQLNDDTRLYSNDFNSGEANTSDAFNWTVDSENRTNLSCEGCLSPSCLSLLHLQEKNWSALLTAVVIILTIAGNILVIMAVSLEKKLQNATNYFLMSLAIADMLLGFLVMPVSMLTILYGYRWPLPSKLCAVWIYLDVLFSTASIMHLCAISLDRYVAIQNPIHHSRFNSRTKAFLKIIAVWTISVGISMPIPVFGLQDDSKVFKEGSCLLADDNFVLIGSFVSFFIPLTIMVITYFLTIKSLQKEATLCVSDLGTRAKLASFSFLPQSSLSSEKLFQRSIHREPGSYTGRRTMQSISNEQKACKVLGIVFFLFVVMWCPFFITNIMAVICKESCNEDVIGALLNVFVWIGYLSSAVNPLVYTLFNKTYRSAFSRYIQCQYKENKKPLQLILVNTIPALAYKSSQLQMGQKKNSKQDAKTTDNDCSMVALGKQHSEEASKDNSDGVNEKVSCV

5-HT receptors = conditions: cited from earlier work
[1] = in vivo; cited from earlier work
humans = conditions: cited from earlier work
rats [2] = conditions: cited from earlier work
human participants = conditions: 0.03 mg/kg delivered daily; cited from earlier work
rats [3] = conditions: cited from earlier work; remark: listed apart in the source
[4] = test system: participants with alcoholism; conditions: 1 to 6 DPT sessions; cited from earlier work
[5] = test system: participants with alcoholism; conditions: DPT treatment vs conventional treatment; cited from earlier work
[6] = test system: participants with alcohol dependence; conditions: single high-dose LSD session vs control, six trials; cited from earlier work
C57BL/6J mice = conditions: cited from earlier work
rodents = conditions: cited from earlier work
5HT1A receptors = target: T1, 5HT1A receptors (Homo sapiens, UniProt P08908); conditions: cited from earlier work
T1 sequence (P08908 1-422): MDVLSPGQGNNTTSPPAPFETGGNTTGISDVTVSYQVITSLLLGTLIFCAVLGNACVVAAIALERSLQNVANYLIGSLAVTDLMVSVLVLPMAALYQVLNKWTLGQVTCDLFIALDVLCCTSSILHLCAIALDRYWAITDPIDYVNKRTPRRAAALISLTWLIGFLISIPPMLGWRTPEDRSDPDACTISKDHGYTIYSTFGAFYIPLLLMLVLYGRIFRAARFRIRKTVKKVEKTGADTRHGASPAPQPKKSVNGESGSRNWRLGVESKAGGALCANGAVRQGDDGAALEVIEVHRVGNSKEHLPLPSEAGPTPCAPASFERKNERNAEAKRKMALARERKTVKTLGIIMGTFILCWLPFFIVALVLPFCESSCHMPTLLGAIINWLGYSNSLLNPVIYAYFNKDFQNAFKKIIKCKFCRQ

dopamine receptors = conditions: cited from earlier work
[7] = LSD 50 ug/kg or BOL-148 3.0 mg/kg IP

For `CCN(CC)C(=O)[C@@H]1C=C2c3cccc4[nH]c(Br)c(c34)C[C@H]2N(C)C1` [BOL-148, 2-bromo-lysergic acid diethylamide], the “ethanol preference, within-group mean difference week 1 vs. week 3” value (male fosTRAP2×Ai14 mice; [7]) was 0.119, the “ethanol consumption, mean difference Saline vs. treatment” value (male fosTRAP2×Ai14 mice) was 0.004 mg total ethanol consumed/mg of body weight and the “effect of treatment on alcohol preference (summary)” value (male fosTRAP2×Ai14 mice) was “modest effect”. For the same molecule, the “additive effect of a second dose on alcohol preference” value (male fosTRAP2×Ai14 mice) was “an additive effect of BOL-148 was found”, the “activity at 5HT2A receptors” value (5HT2A receptors) was 5HT2A antagonist activity and the “effect on 5-HT receptors” value (5-HT receptors) was “neutral antagonist”. The psychedelic activity [1] was “inactive as a psychedelic”, the “blockade of the effects of LSD in humans” value (humans) was “could block the effects of LSD” and the “blockade of the effects of LSD by pre-treatment” value (rats [2]) was “will not block the effects of LSD”. For the same molecule, the “effect on cluster headaches” value (human participants) was “effective at reducing cluster headaches”.

For `COc1cc(CC(C)N)c(OC)cc1I` (stereo not shown) [DOI, 2,5-dimethoxy-4-iodoamphetamine], the “effect on alcohol preference” value (rats [3]) is listed as “reduce alcohol preference”.

For `CCCN(CCC)CCc1c[nH]c2ccccc12` [DPT, Dipropyltryptamine], the “clinical outcomes including abstinence at 6 months” value [4] is given as “highly significant improvement” and the “clinical outcomes at 6 month follow-up vs other groups” value [5] is given as “no significant differences”.

In the case of `CCN(CC)C(=O)[C@@H]1C=C2c3cccc4[nH]cc(c34)C[C@H]2N(C)C1` [LSD, lysergic acid diethylamide], the “ethanol preference, mean difference LSD vs. BOL-148” value (male fosTRAP2×Ai14 mice; LSD 50 ug/kg versus BOL-148 3.0 mg/kg treated groups) is reported as 0.081, the “ethanol preference, within-group mean difference week 1 vs. week 3” value (male fosTRAP2×Ai14 mice; [7]) is reported as 0.014 and the “ethanol consumption, mean difference Saline vs. treatment” value (male fosTRAP2×Ai14 mice) is reported as 0.050 mg total ethanol consumed/mg of body weight. For the same molecule, the “ethanol preference (ethanol consumption/total fluid consumption), mean difference Saline vs. treatment” value (male fosTRAP2×Ai14 mice; planned contrast across follow-up, LSD 50 ug/kg or BOL-148 3.0 mg/kg IP) was 0.168, the “ethanol consumption, mean difference Saline vs. LSD, Week 1” value (male fosTRAP2×Ai14 mice; post-hoc, Week 1 (injection week), LSD 50 ug/kg IP) was 0.062 mg total ethanol consumed/mg of body weight and the “ethanol consumption, mean difference Saline vs. LSD, Week 2” value (male fosTRAP2×Ai14 mice; post-hoc, Week 2 (non-injection week), LSD 50 ug/kg IP) was 0.077 mg total ethanol consumed/mg of body weight. The “ethanol consumption, mean difference Saline vs. LSD, Week 3” value (male fosTRAP2×Ai14 mice; post-hoc, Week 3 (injection week), LSD 50 ug/kg IP) was −0.029 mg total ethanol consumed/mg of body weight, the “ethanol consumption, mean difference Saline vs. LSD, Week 4” value (male fosTRAP2×Ai14 mice; post-hoc, Week 4 (non-injection week), LSD 50 ug/kg IP) was 0.089 mg total ethanol consumed/mg of body weight and the “effect of treatment on alcohol preference (summary)” value (male fosTRAP2×Ai14 mice) was “becomes apparent immediately, and remains stable for weeks”. For the same molecule, the “additive effect of a second dose on alcohol preference” value (male fosTRAP2×Ai14 mice) was “An additive effect was not found”, the “odds of improvement at first post-treatment follow-up (OR)” value [6] was 1.96 and the “effect on alcohol consumption and alcohol preference” value (C57BL/6J mice; acute administration of 50 ug/kg LSD, C57BL/6J mice) was “robust and lasting reduction”. For the same molecule, the “duration of observation over which reduced ethanol consumption was shown” value (C57BL/6J mice; mice, 25 μg/kg LSD) was 46 days, the “group mean reduction of ethanol consumption relative to controls” value (C57BL/6J mice; mice, 25 μg/kg LSD) was 17.9% and the “range of doses that reliably produce accurate responding in a discrimination task or head twitch response” value (rodents) was 0.17 to 0.2 mg/kg. The “activity at 5HT1A receptors” value (5HT1A receptors) was “potent agonist”, the “activity at 5HT2A receptors” value (5HT2A receptors) was “partial agonist” and the “activity at dopamine receptors” value (dopamine receptors) was “partial agonist”.
